Where a name gives a salt, the structure may show the parent alone.
Target: T1, epithelial sodium channel (ENaC) (Homo sapiens, UniProt P37088+P51168+P51170)
T1 construct: host or cells: primary human bronchial epithelial cells (HBECs), air-liquid interface culture
T1 sequence (P37088 1-669): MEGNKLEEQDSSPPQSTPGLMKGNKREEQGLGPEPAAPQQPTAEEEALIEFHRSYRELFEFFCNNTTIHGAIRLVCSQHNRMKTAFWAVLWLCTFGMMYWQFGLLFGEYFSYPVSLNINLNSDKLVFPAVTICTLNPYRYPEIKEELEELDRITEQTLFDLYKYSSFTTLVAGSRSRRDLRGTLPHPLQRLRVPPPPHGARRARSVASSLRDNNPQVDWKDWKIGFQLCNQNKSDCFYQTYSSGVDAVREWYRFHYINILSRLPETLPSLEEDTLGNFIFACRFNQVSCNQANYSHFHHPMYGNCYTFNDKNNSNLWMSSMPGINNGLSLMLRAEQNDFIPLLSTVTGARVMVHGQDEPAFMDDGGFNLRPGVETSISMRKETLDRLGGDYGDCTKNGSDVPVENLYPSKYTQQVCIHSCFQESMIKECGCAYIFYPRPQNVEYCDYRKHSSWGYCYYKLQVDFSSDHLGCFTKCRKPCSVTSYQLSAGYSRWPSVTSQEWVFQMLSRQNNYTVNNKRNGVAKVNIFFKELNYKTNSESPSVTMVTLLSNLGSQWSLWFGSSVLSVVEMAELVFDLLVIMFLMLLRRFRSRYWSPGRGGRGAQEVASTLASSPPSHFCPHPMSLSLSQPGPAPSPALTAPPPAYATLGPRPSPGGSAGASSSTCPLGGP
T1 sequence (P51168 1-640): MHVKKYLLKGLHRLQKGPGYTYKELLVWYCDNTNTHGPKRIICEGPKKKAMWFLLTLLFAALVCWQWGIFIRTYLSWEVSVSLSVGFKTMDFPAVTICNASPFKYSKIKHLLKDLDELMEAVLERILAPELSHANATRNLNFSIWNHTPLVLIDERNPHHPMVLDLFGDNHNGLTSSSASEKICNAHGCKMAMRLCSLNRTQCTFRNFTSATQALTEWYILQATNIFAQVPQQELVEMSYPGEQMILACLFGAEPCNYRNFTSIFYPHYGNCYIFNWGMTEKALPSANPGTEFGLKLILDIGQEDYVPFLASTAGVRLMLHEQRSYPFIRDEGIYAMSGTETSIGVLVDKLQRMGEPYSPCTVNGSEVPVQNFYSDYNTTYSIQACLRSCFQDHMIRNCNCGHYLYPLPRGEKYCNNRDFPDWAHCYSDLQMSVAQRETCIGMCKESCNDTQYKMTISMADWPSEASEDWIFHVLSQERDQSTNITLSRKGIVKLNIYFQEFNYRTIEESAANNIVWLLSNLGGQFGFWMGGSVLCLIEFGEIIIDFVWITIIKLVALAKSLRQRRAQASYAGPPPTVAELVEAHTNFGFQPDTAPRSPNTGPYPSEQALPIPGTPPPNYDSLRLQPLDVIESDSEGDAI
T1 sequence (P51170 1-649): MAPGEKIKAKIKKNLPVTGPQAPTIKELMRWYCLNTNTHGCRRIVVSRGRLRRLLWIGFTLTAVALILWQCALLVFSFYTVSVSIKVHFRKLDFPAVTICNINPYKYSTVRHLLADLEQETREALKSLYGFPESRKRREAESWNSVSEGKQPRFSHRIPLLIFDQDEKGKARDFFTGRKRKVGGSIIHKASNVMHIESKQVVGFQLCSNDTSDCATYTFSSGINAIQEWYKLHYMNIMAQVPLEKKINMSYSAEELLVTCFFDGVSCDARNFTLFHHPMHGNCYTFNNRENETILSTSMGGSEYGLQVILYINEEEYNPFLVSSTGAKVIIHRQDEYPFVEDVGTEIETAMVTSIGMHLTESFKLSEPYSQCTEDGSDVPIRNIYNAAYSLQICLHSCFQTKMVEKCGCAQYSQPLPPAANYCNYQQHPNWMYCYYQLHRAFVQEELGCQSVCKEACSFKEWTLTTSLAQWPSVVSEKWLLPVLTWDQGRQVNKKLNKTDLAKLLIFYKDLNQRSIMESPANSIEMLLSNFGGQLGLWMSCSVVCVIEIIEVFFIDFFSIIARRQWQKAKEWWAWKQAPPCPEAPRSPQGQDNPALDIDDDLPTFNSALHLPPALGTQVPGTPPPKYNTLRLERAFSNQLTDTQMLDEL
Assay: Short circuit current (ISC) measurements in human bronchial epithelial cells, inhibition of amiloride-sensitive ISC
Assay type: cell-based
Settings: Human Bronchial Epithelial cells (HBECs) at air-liquid interface, Ussing chamber, apical addition
Experimental: Human Bronchial Epithelial cells (HBECs) (Cambrex) were cultured under air-liquid interface conditions to provide a well differentiated mucociliary phenotype.
HBECs were cultured using a modification of the method described by Gray and colleagues (Gray et al., 1996). Cells were seeded in plastic T-162 flasks and were grown in bronchial epithelial cell growth medium (BEGM; Cambrex) supplemented with bovine pituitary extract (52 μg/mL), hydrocortisone (0.5 μg/mL), human recombinant epidermal growth factor (0.5 ng/mL), epinephrine (0.5 μg/mL), transferrin (10 μg/mL), insulin (5 μg/mL), retinoic acid (0.1 μg/mL), triiodothyronine ([…]), gentamycin (50 μg/mL) and amphotericin B (50 ng/mL). Medium was changed every 48 hours until cells were 90% confluent. Cells were then passaged and seeded (8.25×10^5 cells/insert) on polycarbonate Snapwell inserts (Costar) in differentiation media containing 50% DMEM in BEGM with the same supplements as above but without triiodothyronine and a final retinoic acid concentration of 50 nM (all-trans retinoic acid). Cells were maintained submerged for the first 7 days in culture, after which time they were exposed to an apical air interface for the remainder of the culture period. At this time, media was changed to DMEM:F12 media containing 2% v/v Ultroser G for the remainder of culture. Amphotericin B was removed from all media 3 feeds prior to use in the Ussing Chambers. Cells were used between days 7 and 21 after establishment of the apical-air interface. At all stages of culture, cells were maintained at 37° C. in 5% CO2 in an air incubator.
Snapwell inserts were mounted in Vertical Diffusion Chambers (Costar) and were bathed with continuously gassed Ringer solution (5% CO2 in O2; pH 7.4) maintained at 37° C. containing (in mM): 120 NaCl, 25 NaHCO3, 3.3 KH2PO4, 0.8 K2HPO4, 1.2 CaCl2, 1.2 MgCl2, and 10 glucose. The solution osmolarity was between 280 and 300 mOsmol/kg H2O for all physiological salt solutions used. Cells were voltage clamped to 0 mV (model EVC4000; WPI). RT was measured by applying a 1- or 2-mV pulse at 30-s intervals and calculating RT by Ohm's law. Data were recorded using a PowerLab workstation (ADInstruments).
Test compounds were prepared as a 10 mM stock solution in DMSO (95%). Serial 3-fold dilutions were freshly prepared in an appropriate vehicle (distilled H2O or Ringers solution). The initial concentration was added to the apical chamber as a 1000× concentrate in 5 μL, resulting in a final 1× concentration the 5 mL volume of the Ussing chamber. Subsequent additions of compound were added in a 3.3 μL volume of the 1000× serially diluted stock solution. At the completion of the concentration-response experiment, amiloride (10 μM) was added into the apical chamber to enable the total amiloride-sensitive current to be measured. An amiloride control IC50 was established at the start of each experiment.
Results are expressed as the mean % inhibition of the amiloride-sensitive ISC. Concentration-response curves were plotted and IC50 values generated using GraphPad Prism 3.02. Cell inserts were typically run in duplicate and the IC50 calculated on the mean % inhibition data.

IC50 [nM] | SMILES
290 | CCC[C@H](N)CNC(=O)c1nc(Cl)c(N)nc1N [Example 4, 3,5-Diamino-6-chloro-pyrazine-2-carboxylic acid ((S)-2-amino-pentyl)-amide hydrochloride]
2740 | Nc1nc(N)c(C(=O)NC[C@@H]2CCCN2)nc1Cl [Example 9, 3,5-Diamino-6-chloro-pyrazine-2-carboxylic acid ((S)-1-pyrrolidin-2-ylmethyl)-amide hydrochloride]
5900 | Nc1nc(N)c(C(=O)NCC2(N)CCCC2)nc1Cl [Example 11, 3,5-Diamino-6-chloro-pyrazine-2-carboxylic acid (1-amino-cyclopentylmethyl)-amide hydrochloride]
32 | Nc1nc(N)c(C(=O)NC[C@@H](N)CCCCNC(=O)Cc2ccc(OCc3ccccc3)cc2)nc1Cl [Example 12, 3,5-Diamino-6-chloro-pyrazine-2-carboxylic acid {(S)-2-amino-6-[2-(4-benzyloxy-phenyl)-acetylamino]-hexyl}-amide trifluororoacetate]
64 | Nc1nc(N)c(C(=O)NC[C@@H](N)CCCCNC(=O)CCc2ccc(OCc3ccccc3)cc2)nc1Cl [Example 21, 3,5-Diamino-6-chloro-pyrazine-2-carboxylic acid {(S)-2-amino-6-[3-(4-benzyloxy-phenyl)-propionylamino]-hexyl}-amide hydrochloride]
45 | CCC[C@H](CNC(=O)c1nc(Cl)c(N)nc1N)NC(=N)N [Example 24, 3,5-Diamino-6-chloro-pyrazine-2-carboxylic acid ((R)-2-guanidino-pentyl)-amide trifluoroacetate]
60 | CCC[C@@H](CNC(=O)c1nc(Cl)c(N)nc1N)NCCCc1ccc(OC)cc1 [Example 26, 3,5-Diamino-6-chloro-pyrazine-2-carboxylic acid {(S)-2-[3-(4-methoxy-phenyl)-propylamino]-pentyl}-amide hydrochloride]
200 | N=C(N)N[C@@H](CCCCNC(=O)Cc1ccc(OCc2ccccc2)cc1)CNC(=O)c1nc(Cl)c(N)nc1N [Example 27, 3,5-Diamino-6-chloro-pyrazine-2-carboxylic acid {(S)-6-[2-(4-benzyloxy-phenyl)-acetylamino]-2-guanidino-hexyl}-amide trifluoroacetate]
5 | CCC[C@H](CNC(=O)c1nc(Cl)c(N)nc1N)N(CCCc1ccc(OC)cc1)C(=N)N [Example 29, 3,5-Diamino-6-chloro-pyrazine-2-carboxylic acid ((R)-2-{N-[3-(4-methoxy-phenyl)-propyl]-guanidino}-pentyl)-amide trifluoroacetate]
49 | CCC[C@@H](CNC(=O)c1nc(Cl)c(N)nc1N)NC(=N)NCCCc1ccc(OC)cc1 [Example 31, 3,5-Diamino-6-chloro-pyrazine-2-carboxylic acid ((S)-2-{N′-[3-(4-methoxy-phenyl)-propyl]-guanidino}-pentyl)-amide]
6 | CCC[C@@H](CNC(=O)c1nc(Cl)c(N)nc1N)NC(=N)NCc1ccc(OC)cc1 [Example 32, 3,5-Diamino-6-chloro-pyrazine-2-carboxylic acid {(S)-2-[N′-(4-methoxy-benzyl)-guanidino]-pentyl}-amide]
